PubChem BioAssay (NCI)
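Interpolation was linear, between the two tested concentrations surrounding the appropriate level; five concentrations were tested over 48 hours in 96-well plates. TGI: concentration producing complete growth inhibition.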

Columns and labels:
Assay in all cases: NCI tumour cell line growth inhibition, 48 h
SF-295 CNS = tested on: SF-295 CNS
COLO 205 colon = tested on: COLO 205 colon
MDA-MB-231 breast = tested on: MDA-MB-231 breast
786-0 renal = tested on: 786-0 renal
MALME-3M melanoma = tested on: MALME-3M melanoma
UACC-257 melanoma = tested on: UACC-257 melanoma
ACHN renal = tested on: ACHN renal
SNB-19 CNS = tested on: SNB-19 CNS
HCT-116 colon = tested on: HCT-116 colon
HS 578T breast = tested on: HS 578T breast
SW-620 colon = tested on: SW-620 colon
DU-145 prostate = tested on: DU-145 prostate
UO-31 renal = tested on: UO-31 renal
SK-MEL-5 melanoma = tested on: SK-MEL-5 melanoma
HOP-62 NSCLC = tested on: HOP-62 NSCLC
HT29 colon = tested on: HT29 colon
CAKI-1 renal = tested on: CAKI-1 renal
SR leukemia = tested on: SR leukemia
SNB-75 CNS = tested on: SNB-75 CNS
NCI-H460 lung = tested on: NCI-H460 lung
SK-MEL-28 melanoma = tested on: SK-MEL-28 melanoma
UACC-62 melanoma = tested on: UACC-62 melanoma
SK-MEL-2 melanoma = tested on: SK-MEL-2 melanoma
K-562 leukemia = tested on: K-562 leukemia
SF-268 CNS = tested on: SF-268 CNS
NCI-H522 lung = tested on: NCI-H522 lung
EKVX NSCLC = tested on: EKVX NSCLC
MOLT-4 leukemia = tested on: MOLT-4 leukemia
A498 renal = tested on: A498 renal
U251 CNS = tested on: U251 CNS
PC-3 prostate = tested on: PC-3 prostate
LOX IMVI melanoma = tested on: LOX IMVI melanoma
HOP-92 NSCLC = tested on: HOP-92 NSCLC
MDA-MB-435 = tested on: MDA-MB-435
M14 melanoma = tested on: M14 melanoma
SN12C renal = tested on: SN12C renal
OVCAR-4 ovarian = tested on: OVCAR-4 ovarian
MCF7 breast = tested on: MCF7 breast
T-47D breast = tested on: T-47D breast
HCC-2998 colon = tested on: HCC-2998 colon
OVCAR-5 ovarian = tested on: OVCAR-5 ovarian
HL-60(TB) leukemia = tested on: HL-60(TB) leukemia
HCT-15 colon = tested on: HCT-15 colon
RXF 393 renal = tested on: RXF 393 renal
A549 NSCLC = tested on: A549 NSCLC
NCI-H23 lung = tested on: NCI-H23 lung
KM12 colon = tested on: KM12 colon
CCRF-CEM leukemia = tested on: CCRF-CEM leukemia
SF-539 CNS = tested on: SF-539 CNS
IGROV1 ovarian = tested on: IGROV1 ovarian
TK-10 renal = tested on: TK-10 renal
SK-OV-3 ovarian = tested on: SK-OV-3 ovarian
OVCAR-8 ovarian = tested on: OVCAR-8 ovarian
RPMI-8226 leukemia = tested on: RPMI-8226 leukemia
OVCAR-3 ovarian = tested on: OVCAR-3 ovarian
BT-549 breast = tested on: BT-549 breast
MDA-N = tested on: MDA-N
NCI/ADR-RES ovarian = tested on: NCI/ADR-RES ovarian
NCI-H226 lung = tested on: NCI-H226 lung

Structure (SMILES): NC(N)=N/N=C(\c1ccc(F)cc1)c1ccc(C(F)(F)F)cc1
- TGI (SF-295 CNS): 817 nM
- TGI (COLO 205 colon): 877 nM
- TGI (MDA-MB-231 breast): 1150 nM
- TGI (786-0 renal): 1590 nM
- TGI (MALME-3M melanoma): 2530 nM
- TGI (UACC-257 melanoma): 4630 nM
- TGI (ACHN renal): 10100 nM
- TGI (SNB-19 CNS): 14300 nM
- TGI (HCT-116 colon): 1280 nM
- TGI (HS 578T breast): 1850 nM
- TGI (SW-620 colon): 2040 nM
- TGI (DU-145 prostate): 7760 nM
- TGI (UO-31 renal): 4130 nM
- TGI (SK-MEL-5 melanoma): 3670 nM
- TGI (HOP-62 NSCLC): 955 nM
- TGI (HT29 colon): 4980 nM
- TGI (CAKI-1 renal): 4980 nM
- TGI (SR leukemia): 1470 nM
- TGI (SNB-75 CNS): 7770 nM
- TGI (NCI-H460 lung): 2090 nM
- TGI (SK-MEL-28 melanoma): 8000 nM
- TGI (UACC-62 melanoma): 1550 nM
- TGI (SK-MEL-2 melanoma): 4060 nM
- TGI (K-562 leukemia): 2080 nM
- TGI (SF-268 CNS): 9960 nM
- TGI (NCI-H522 lung): 525 nM
- TGI (EKVX NSCLC): 11300 nM
- TGI (MOLT-4 leukemia): 1440 nM
- TGI (A498 renal): 333 nM
- TGI (U251 CNS): 4720 nM
- TGI (PC-3 prostate): 5510 nM
- TGI (LOX IMVI melanoma): 1640 nM
- TGI (HOP-92 NSCLC): 8590 nM
- TGI (MDA-MB-435): 298 nM
- TGI (M14 melanoma): 1350 nM
- TGI (SN12C renal): 9050 nM
- TGI (OVCAR-4 ovarian): 15900 nM
- TGI (MCF7 breast): 2150 nM
- TGI (T-47D breast): 5820 nM
- TGI (HCC-2998 colon): 1750 nM
- TGI (OVCAR-5 ovarian): 9740 nM
- TGI (HL-60(TB) leukemia): 762 nM
- TGI (HCT-15 colon): 7450 nM
- TGI (RXF 393 renal): 633 nM
- TGI (A549 NSCLC): 4960 nM
- TGI (NCI-H23 lung): 7290 nM
- TGI (KM12 colon): 2040 nM
- TGI (CCRF-CEM leukemia): 5430 nM
- TGI (SF-539 CNS): 749 nM
- TGI (IGROV1 ovarian): 1490 nM
- TGI (TK-10 renal): 13600 nM
- TGI (SK-OV-3 ovarian): 4940 nM
- TGI (OVCAR-8 ovarian): 3090 nM
- TGI (RPMI-8226 leukemia): 2210 nM
- TGI (OVCAR-3 ovarian): 1590 nM
- TGI (BT-549 breast): 4020 nM
- TGI (MDA-N): 494 nM
- TGI (NCI/ADR-RES ovarian): 4350 nM
- TGI (NCI-H226 lung): 783 nM
